Measured values published in patent US5440016A, “Peptides of the formula (KFmoc) ZZZ and their uses” (priority 1993, dated 1995).
Values after ≈ are worked out from the molar mass of the structure shown. Square brackets hold non-standard residues; d marks the D form. Peptide text beside a SMILES is read from it. * marks the point of attachment. Fmoc = O=C(OCC1c2ccccc2-c2ccccc21)*

Assays:
[1] = tested on: Escherichia coli ATCC 25922; details: Tables 2-5; concentration necessary to inhibit 50% growth
Method: Escherichia coli ATCC 25922 and P. aeruginosa ATCC 27853 were used as Gram-negative (-) and Staphylococcus aureus ATCC 29213 as Gram-positive (+) bacteria. Bacteria were grown overnight at 37° C. in Mueller-Hinton (MH) broth. This culture was reinoculated and incubated at 37° C. to reach the exponential phase of bacteria growth, i.e., a final bacterial suspension containing 10^5 to 5×10^5 colony-forming units (CFU)/ml. The concentration of cells was established by plating 100 μl of different dilutions of the culture solution (e.g., 10^-2, 10^-3 and 10^-4) onto solid agar plates.
Following an overnight incubation at 37° C., the CFU thus formed were counted on each agar plate. In 96-well tissue culture plates, as control blanks, eight wells per plate contained only medium, while as a positive growth control, eight other wells contained medium plus cells.
The plates were incubated overnight at 37° C., and the optical density (OD) determined at 620 nm after different times of incubation.

[2] = tested on: Staphylococcus aureus ATCC 29213; details: Tables 6-9
[3] = tested on: Candida albicans ATCC 10231; details: Tables 14-17
[4] = tested on: Human red blood cells (RBCs); test: Hemolytic activity; assay type: cell-based; details: Tables 18-21
[5] = tested on: Streptococcus sanguis ATCC 10556; details: Tables 10-13
Method: Streptococcus sanguis ATCC 10556 (Gram-positive (+) bacteria present in tooth crevices) was grown overnight at 37° C. in Brain Heart Infusion (BHI) broth. This culture was reinoculated and incubated at 37° C. to reach the exponential phase of bacteria growth, i.e., a final bacterial suspension containing 10^5 to 5×10^5 colony-forming units (CFU)/ml. The concentration of cells was established by plating 100 μl of different dilutions of the culture solution (e.g., 10^-2, 10^-4) and 10^-4) onto solid agar plates. Following an overnight incubation at 37° C., the CFU thus formed were counted on each agar plate. In 96-well tissue culture plates, as control blanks, eight wells per plate contained only medium, while as a positive growth control, eight other wells contained medium plus cells. […] The plates were incubated overnight at 37° C., and the optical density (OD) determined at 620 nm after 20 to 24 hours incubation.

Row | Structure (SMILES) | IC50 against E. coli [1] [µg/mL] | IC50 against S. aureus [2] [µg/mL] | IC50 against C. albicans [3] [µg/mL] | HD50 (concentration necessary to lyse 50% of the cells) [4] [µg/mL] | IC50 against S. sanguis [5] [µg/mL]
1 | NCCCC[C@H](NC(=O)OCC1c2ccccc2-c2ccccc21)C(=O)N[C@@H](Cc1c[nH]c2ccccc12)C(=O)N[C@@H](CCCCN)C(=O)N1CCC[C@@H]1C(N)=O [(KFmoc)WKp-NH2] (Fmoc-KWK[dP]-NH2) | 39 (≈ 50.1 µM) | 8 (≈ 10.3 µM) | 251 (≈ 322 µM) | 437 | 5 (≈ 6.42 µM)
2 | NCCCC[C@H](NC(=O)OCC1c2ccccc2-c2ccccc21)C(=O)N[C@@H](Cc1c[nH]c2ccccc12)C(=O)N[C@@H](CCCCN)C(=O)N[C@H](CCC(N)=O)C(N)=O [(KFmoc)WKq-NH2] (Fmoc-KWK[dQ]-NH2) | 57 (≈ 70.4 µM) | 7 (≈ 8.64 µM) | 291 (≈ 359 µM) | 483 | 7 (≈ 8.64 µM)
3 | N=C(N)NCCC[C@@H](NC(=O)[C@H](CCCCN)NC(=O)[C@H](Cc1c[nH]c2ccccc12)NC(=O)[C@H](CCCCN)NC(=O)OCC1c2ccccc2-c2ccccc21)C(N)=O [(KFmoc)WKr-NH2] (Fmoc-KWK[dR]-NH2) | 66 (≈ 78.8 µM) | 7 (≈ 8.35 µM) | 98 (≈ 117 µM) | 324 | 5 (≈ 5.97 µM)
4 | NCCCC[C@H](NC(=O)OCC1c2ccccc2-c2ccccc21)C(=O)N[C@@H](Cc1c[nH]c2ccccc12)C(=O)N[C@@H](CCCCN)C(=O)N[C@H](CO)C(N)=O [(KFmoc)WKs-NH2] (Fmoc-KWK[dS]-NH2) | 57 (≈ 74.1 µM) | 6 (≈ 7.8 µM) | 214 (≈ 278 µM) | 296 | 6 (≈ 7.8 µM)
5 | C[C@H](O)[C@@H](NC(=O)[C@H](CCCCN)NC(=O)[C@H](Cc1c[nH]c2ccccc12)NC(=O)[C@H](CCCCN)NC(=O)OCC1c2ccccc2-c2ccccc21)C(N)=O [(KFmoc)WKt-NH2] (Fmoc-KWK[dT]-NH2) | 55 (≈ 70.2 µM) | 10 (≈ 12.8 µM) | 292 (≈ 373 µM) | 435 | 7 (≈ 8.94 µM)
6 | CC(C)[C@@H](NC(=O)[C@H](CCCCN)NC(=O)[C@H](Cc1c[nH]c2ccccc12)NC(=O)[C@H](CCCCN)NC(=O)OCC1c2ccccc2-c2ccccc21)C(N)=O [(KFmoc)WKv-NH2] (Fmoc-KWK[dV]-NH2) | 54 (≈ 69.1 µM) | 9 (≈ 11.5 µM) | 187 (≈ 239 µM) | 181 | 10 (≈ 12.8 µM)
7 | NCCCC[C@H](NC(=O)OCC1c2ccccc2-c2ccccc21)C(=O)N[C@@H](Cc1c[nH]c2ccccc12)C(=O)N[C@@H](CCCCN)C(=O)N[C@H](Cc1c[nH]c2ccccc12)C(N)=O [(KFmoc)WKw-NH2] (Fmoc-KWK[dW]-NH2) | 15 (≈ 17.3 µM) | 4 (≈ 4.61 µM) | 116 (≈ 134 µM) | 32 | 4 (≈ 4.61 µM)
8 | NCCCC[C@H](NC(=O)OCC1c2ccccc2-c2ccccc21)C(=O)N[C@@H](Cc1c[nH]c2ccccc12)C(=O)N[C@@H](CCCCN)C(=O)N[C@H](Cc1ccc(O)cc1)C(N)=O [(KFmoc)WKy-NH2] (Fmoc-KWK[dY]-NH2) | 39 (≈ 46.2 µM) | 7 (≈ 8.28 µM) | 144 (≈ 170 µM) | 368 | 8 (≈ 9.47 µM)
9 | C[C@@H](NC(=O)[C@H](Cc1ccc(O)cc1)NC(=O)[C@H](Cc1c[nH]c2ccccc12)NC(=O)[C@H](CCCCN)NC(=O)OCC1c2ccccc2-c2ccccc21)C(N)=O [(KFmoc)WYa-NH2] (Fmoc-KWY[dA]-NH2) | 87 (≈ 110 µM) | 5 (≈ 6.35 µM) | 249 (≈ 316 µM) | 74 | 5 (≈ 6.35 µM)
10 | NCCCC[C@H](NC(=O)OCC1c2ccccc2-c2ccccc21)C(=O)N[C@@H](Cc1c[nH]c2ccccc12)C(=O)N[C@@H](Cc1ccc(O)cc1)C(=O)N[C@H](Cc1c[nH]cn1)C(N)=O [(KFmoc)WYh-NH2] (Fmoc-KWY[dH]-NH2) | 40 (≈ 46.8 µM) | 7 (≈ 8.2 µM) | 192 (≈ 225 µM) | 73 | 8 (≈ 9.37 µM)
11 | NCCCC[C@H](NC(=O)OCC1c2ccccc2-c2ccccc21)C(=O)N[C@@H](Cc1c[nH]c2ccccc12)C(=O)N[C@@H](Cc1ccc(O)cc1)C(=O)N[C@H](CCCCN)C(N)=O [(KFmoc)WYk-NH2] (Fmoc-KWY[dK]-NH2) | 18 (≈ 21.3 µM) | 5 (≈ 5.92 µM) | 121 (≈ 143 µM) | 62 | 5 (≈ 5.92 µM)
12 | NCCCC[C@H](NC(=O)OCC1c2ccccc2-c2ccccc21)C(=O)N[C@@H](Cc1c[nH]c2ccccc12)C(=O)N[C@@H](Cc1ccc(O)cc1)C(=O)N1CCC[C@@H]1C(N)=O [(KFmoc)WYp-NH2] (Fmoc-KWY[dP]-NH2) | 84 (≈ 103 µM) | 5 (≈ 6.14 µM) | 165 (≈ 203 µM) | 76 | 5 (≈ 6.14 µM)
13 | N=C(N)NCCC[C@@H](NC(=O)[C@H](Cc1ccc(O)cc1)NC(=O)[C@H](Cc1c[nH]c2ccccc12)NC(=O)[C@H](CCCCN)NC(=O)OCC1c2ccccc2-c2ccccc21)C(N)=O [(KFmoc)WYr-NH2] (Fmoc-KWY[dR]-NH2) | 16 (≈ 18.3 µM) | 4 (≈ 4.58 µM) | 109 (≈ 125 µM) | 31 | 4 (≈ 4.58 µM)
